The test system of data set [1] is spontaneous hypertension SHR rats. The data set is described as follows: Blood pressure depressing test in rats (tail artery systolic pressure, tail volume method). To be noted: for systolic pressure at the tail artery, before administration: baseline before administration, n=10 per group; for antihypertensive effect compared with the blank model group / systolic pressure at the tail artery, 1 week after administration / systolic pressure at the tail artery, 2 weeks after administration / systolic pressure at the tail artery, 3 weeks after administration / systolic pressure at the tail artery, 4 weeks after administration: intragastric; for antihypertensive effect compared with the blank model group: doses as in Table 3; for systolic pressure at the tail artery, 1 week after administration / systolic pressure at the tail artery, 2 weeks after administration / systolic pressure at the tail artery, 3 weeks after administration / systolic pressure at the tail artery, 4 weeks after administration: levamlodipine benzenesulfonate 5 mg/kg·d, indapamide 5 mg/kg·d, compound low-dose 2.5+0.5 mg/kg·d, compound high-dose 2.5+2.5 mg/kg·d. The data set is classed as in vivo, rat. From the text: (§1) Experiment method: 50 health spontaneous hypertension SHR rats (female to male 1:1, weight 200-240 g) were equally divided into 5 groups according to the level of the hypertension (the specific grouping method is as shown in Table 3), and intragastrically administrated with the medicine. For the blood pressure of the rate, the systolic pressure at the tail artery of the rat when being wake and quite was indirectly measured by an electronic blood pressure meter through the tail volume method respectively before administration and at the end of one, two, three, and four weeks after administration. [table]

The test system is the same in data set [2]. Kind of data set: Edema side effect in the SHR rat blood pressure test. The data set is classed as in vivo. Particulars: intragastric.
From the text: as §1, with “administration.” for “administration. [table]”

For data set [3] the following is noted: background statement, species not given; cited from earlier work.

In general, half-life refers to the time needed for the level to fall by half in the phase considered. Regarding `CC1Cc2ccccc2N1NC(=O)c1ccc(Cl)c(S(N)(=O)=O)c1` (stereo not drawn) [Indapamide, indapamide], in data set [1], the “systolic pressure at the tail artery, before administration” value came to 27.02 ± 1.39 KPa; the “antihypertensive effect compared with the blank model group” value was “significant antihypertensive effect”; the “systolic pressure at the tail artery, 1 week after administration” value amounted to 26.88 ± 1.38 Kpa; the “systolic pressure at the tail artery, 2 weeks after administration” value was determined as 25.85 ± 1.38 KPa. Besides, in data set [1], the “systolic pressure at the tail artery, 3 weeks after administration” value is on record as 25.56 ± 1.35 KPa and the “systolic pressure at the tail artery, 4 weeks after administration” value came to 25.36 ± 1.36 KPa. In data set [2] (doses as in Table 3, up to 4 weeks), the “occurrence of edema side effect” value is given as “no edema occurred”. The half-life in data set [3] is 17 h.
Take levamlodipine benzenesulfonate: in data set [1], the “systolic pressure at the tail artery, before administration” value was 26.96 ± 1.29 KPa; the “antihypertensive effect compared with the blank model group” value was “significant antihypertensive effect”; the “systolic pressure at the tail artery, 1 week after administration” value is 26.79 ± 1.31 Kpa; the “systolic pressure at the tail artery, 2 weeks after administration” value came out at 25.33 ± 1.26 KPa. In data set [1], the “systolic pressure at the tail artery, 3 weeks after administration” value was found to be 24.55 ± 1.28 KPa and the “systolic pressure at the tail artery, 4 weeks after administration” value is 23.87 ± 1.28 KPa. Further, the edema incidence rate in data set [2] (5 mg levamlodipine benzenesulfonate/kg·d, up to 4 weeks) was determined as 10%.

Source of the values: US8470363B2, “Antihypertensive pharmaceutical composition” (Shihuida Pharmaceuticals Group (JILIN) Ltd., priority 2010, dated 2013).
